{
  "source": "patent US9157904B2",
  "about": "“Wnt antagonists and methods of treatment and screening” (OncoMed Pharmaceuticals, Inc., priority 2010, dated 2015)",
  "key": {"PN4 tumors": {"tested_on": "PN4 tumors", "assay": "Flow cytometry for ESA and CD44 on treated PN4 tumors", "type": "in vivo, NOD/SCID mice", "settings": "PN4 tumors harvested day 85, 5 tumors pooled; control antibody 12.7%", "description": "Control and treated tumors from the OMP-PN4 xenograft study described above were harvested at the end of the study (day 85). The tumors were processed and dissociated into single cells. Single cell suspensions derived from 5 tumors of each treatment group were pooled, and the pooled samples were then incubated on ice for 30 min with antibodies that bind mouse cells selectively (α-mouse CD45-biotin 1:200 dilution and rat α-mouse H2Kd-biotin 1:100 dilution, BioLegend, San Diego, Calif.), followed by addition of streptavidin-labeled magnetic beads (Invitrogen, Carlsbad, Calif.). Mouse cells were removed with the aid of a magnet. For analysis of human cell surface markers, the single tumor cell suspension was stained with anti-ESA (Biomeda, Hayward, Calif.) and anti-CD44 (BD Biosciences, San Jose, Calif.) antibodies which were directly conjugated to fluorochromes. Dead cells were excluded by using the viability dye DAPI. Flow cytometry was performed using a FACS Aria instrument (Becton Dickinson, Franklin Lakes, N.J.). Side scatter and forward scatter profiles were used to eliminate cell clumps."}, "PN13 tumors [1]": {"tested_on": "PN13 tumors", "assay": "Alcian blue and Ki67 staining of treated PN13 tumors", "type": "in vivo, NOD/SCID mice", "settings": "FZD8-Fc 15 mg/kg i.p. twice weekly, 19 days, vs control antibody", "description": "(§1) The cell differentiation capability of FZD8-Fc was also evaluated in the OMP-PN13 pancreas tumor xenograft model. Dissociated OMP-PN13 cells (50,000 per animal) were injected subcutaneously into 6-8 week old male NOD/SCID mice. Tumor growth was monitored weekly and tumor measurements were initiated once tumors were palpable. On day 40 mice with average tumor volume of 114 mm^3 were randomized into 4 groups of 10 animals each. Animals were injected with either control antibody or FZD8-Fc (15 mg/kg). Administration of the FZD8-Fc and control antibody was performed via injection into the intraperitoneal cavity, twice weekly. After 19 days of treatment, the tumors were excised and immunohistochemistry analysis was performed using standard techniques. Briefly, tumors were fixed in formalin, embedded in paraffin, and tumor sections of 4 μm thickness were cut. After deparaffinization and hydration, the tumor sections were subjected to an antigen retrieval process in Tris buffer (pH 9.5). Sections were incubated with hydrogen peroxide (Sigma-Aldrich, St Louis, Mo.) for 10 minutes to block endogenous peroxidases. Anti-Ki67 antibody (Dako, clone MIB-1) at 1:200 dilution in blocking buffer (3% NHS, 1% BSA, 0.1% Tween-20, in PBS) was added to each section and incubated for 1 hour. Slides were rinsed 3 times in PBST for 5 minutes each. […]"}, "PN13 tumors [2]": {"tested_on": "PN13 tumors", "assay": "CK20 immunohistochemistry of treated PN13 tumors", "type": "in vivo, NOD/SCID mice", "settings": "vs control antibody", "description": "as §1, with “peroxidases.” for “peroxidases. Anti-Ki67 antibody (Dako, clone MIB-1) at 1:200 dilution in blocking buffer (3% NHS, 1% BSA, 0.1% Tween-20, in PBS) was added to each section and incubated for 1 hour. Slides were rinsed 3 times in PBST for 5 minutes each.”\nTumor sections were obtained and treated as described above. […] The bound antibody was detected using the immunohistochemistry protocol described above."}, "PN21 pancreatic tumors": {"tested_on": "PN21 pancreatic tumors", "assay": "In vivo limiting dilution assay of treated PN21 tumors", "set-up": "species or system NOD/SCID mice", "settings": "day 72", "text": "As described above in Example 3, a limiting dilution assays was used to assess the effect of treatment with FZD8-Fc alone or in combination with gemcitabine on solid tumor cancer stem cells in the PN21 pancreatic tumor model.\nControl and treated tumors from the PN21 xenograft study described above were harvested at the end of the study. The tumors were processed and dissociated into single cells. […] The human cells in the suspension were harvested, counted, and stained for cell surface markers and appropriate cell doses (30, 90, and 270 cells) in FACS buffer were mixed in a 1:1 mixture with Matrigel and injected subcutaneously in NOD/SCID mice (10 mice per cell dose per treatment group). […]\nAt the desired time point, the percentage of mice with detectable tumors was determined in all groups injected with treated tumor cells and compared to the percentage of mice with detectable tumors in control treated cells. For example, the number of mice injected with 125 control antibody-treated tumor cells that have detectable tumors is determined and compared to the number of mice injected with 125 FZD8-Fc treated tumor cells that have detectable tumors.\nOn day 72 after injection of the cells, tumor take rates in the various groups were determined and the cancer stem cell frequency was calculated using L-Calc™ software (StemCell Technologies Inc.; www.stemcell.com)."}, "[3]": {"assay": "Pharmacokinetics of FZD8-Fc variants in rats", "settings": "rat, tail vein, 10 mg/kg, plasma", "procedure": "The pharmacokinetics of several FZD8-Fc variants were assessed in rats in a two week pharmacokinetics (PK) study. […] Sprague Dawley rats, five males in each group, were dosed with FZD8-Fc variants via the tail vein at 10 mg/kg and followed for two weeks with samples collected at time points 1, 24, 48, 72, 96, 168, 240, and 336 hours. At each time point, 1 ml of blood was collected into potassium-EDTA tubes and centrifuged. The plasma supernatants were collected and frozen until the samples were analyzed.\nThe level of FZD8-Fc variant protein present in the plasma at each time point was quantified and the half-life of each FZD8-Fc variant was calculated."}},
  "data": [
    {"substance": "54F03: Fri domain of human FZD8 fused to human IgG1 Fc with GRA linker; SEQ ID NO:1", "values": [
      {"measurement": "bulk tumor population expressing both ESA and CD44 at high levels (double positive population)", "setting": "PN4 tumors", "result": 1.9, "unit": "%"},
      {"measurement": "cells expressing sialomucins (alcian blue)", "setting": "PN13 tumors [1]", "result": "increase in cells expressing sialomucins"},
      {"measurement": "proliferating cells denoted by expression of Ki67", "setting": "PN13 tumors [1]", "result": "decrease in proliferating cells"},
      {"measurement": "cells expressing CK20", "setting": "PN13 tumors [2]", "result": "increase in cells expressing CK20"},
      {"measurement": "reduction of cancer stem cell frequency as compared to control antibody", "setting": "PN21 pancreatic tumors", "result": "four-fold"},
      {"measurement": "t1/2 in hours", "setting": "[3]", "result": 162, "unit": "h"}
    ]}
  ]
}
